{"source": "patent US9624233B2", "about": "“Compounds for treating pruritic conditions” (priority 2015, dated 2017)", "settings_in_all_cases": "2.5E−05M", "key": {"D2S (h)": {"molecular_target": "D2S (h) (Homo sapiens, UniProt P14416)", "sequence (P14416 1-414 isoform P14416-2)": "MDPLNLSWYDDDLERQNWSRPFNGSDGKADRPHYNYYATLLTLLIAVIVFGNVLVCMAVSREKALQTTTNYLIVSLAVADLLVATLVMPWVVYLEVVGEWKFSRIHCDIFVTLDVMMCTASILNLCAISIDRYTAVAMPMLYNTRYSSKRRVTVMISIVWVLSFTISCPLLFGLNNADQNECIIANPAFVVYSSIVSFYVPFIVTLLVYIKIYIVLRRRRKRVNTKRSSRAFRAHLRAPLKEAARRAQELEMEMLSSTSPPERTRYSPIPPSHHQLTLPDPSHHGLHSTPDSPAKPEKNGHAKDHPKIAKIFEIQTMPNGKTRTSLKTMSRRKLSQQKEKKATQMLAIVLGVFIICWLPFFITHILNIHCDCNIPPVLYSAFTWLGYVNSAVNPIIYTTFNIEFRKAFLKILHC", "assay": "Abuse liability binding screen, D2S (h) (antagonist radioligand)", "description": "(§1) Compound binding was calculated as a % inhibition of the binding of a radioactively labeled ligand specific for each target."}, "[1]": {"system": "glycine (strychnine−insensitive)", "format": "binding", "description": "as §1"}, "β1 (h)": {"molecular_target": "β1 (h) (Homo sapiens, UniProt P08588)", "sequence (P08588 whole entry)": "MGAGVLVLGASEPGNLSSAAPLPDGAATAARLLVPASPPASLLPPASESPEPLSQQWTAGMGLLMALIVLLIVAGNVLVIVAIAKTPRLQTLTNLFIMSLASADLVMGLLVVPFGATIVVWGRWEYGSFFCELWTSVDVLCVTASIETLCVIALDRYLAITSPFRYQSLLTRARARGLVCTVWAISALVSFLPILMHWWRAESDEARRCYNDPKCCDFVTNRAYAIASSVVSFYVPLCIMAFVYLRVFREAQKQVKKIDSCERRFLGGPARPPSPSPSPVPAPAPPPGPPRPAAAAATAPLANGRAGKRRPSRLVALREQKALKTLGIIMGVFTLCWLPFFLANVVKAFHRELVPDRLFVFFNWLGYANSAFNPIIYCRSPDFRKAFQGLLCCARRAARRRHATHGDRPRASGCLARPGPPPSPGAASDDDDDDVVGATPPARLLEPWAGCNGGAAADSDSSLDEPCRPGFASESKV", "assay": "Abuse liability binding screen, β1 (h) (agonist radioligand)", "description": "(§2) […]. The abuse liability screen included 44 targets (receptors, transporters, on gated-channel systems) related to the dopamine, norepinephrine, serotonin, gamma-aminobutyric acid (GABA), acetylcholine, N-methyl-D-aspartate (NMDA) cannabinoid and opioid neurotransmitter systems as recommended in FDA Draft guidance on Assessment of Abuse Potential of Drugs, January 2010.\nas §1\n(§3) Results showing an inhibition or stimulation higher than 50% are considered to represent significant effects of the test compounds."}, "GABAA1 (h) (α1, β2, γ2)": {"molecular_target": "GABAA1 (h) (α1, β2, γ2) (Homo sapiens, UniProt P14867+P18507+P47870)", "sequence (P14867 28-456)": "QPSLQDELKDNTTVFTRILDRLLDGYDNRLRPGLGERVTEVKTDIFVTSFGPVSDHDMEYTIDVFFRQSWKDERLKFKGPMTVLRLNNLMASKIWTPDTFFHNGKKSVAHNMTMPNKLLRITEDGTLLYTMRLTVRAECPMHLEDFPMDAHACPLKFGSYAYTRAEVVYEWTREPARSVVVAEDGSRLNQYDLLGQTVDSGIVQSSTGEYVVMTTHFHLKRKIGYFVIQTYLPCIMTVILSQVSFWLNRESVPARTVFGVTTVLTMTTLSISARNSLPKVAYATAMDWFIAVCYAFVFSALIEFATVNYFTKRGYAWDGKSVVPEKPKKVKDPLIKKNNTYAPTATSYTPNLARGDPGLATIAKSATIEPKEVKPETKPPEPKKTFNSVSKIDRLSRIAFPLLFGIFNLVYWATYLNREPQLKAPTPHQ", "sequence (P47870 25-512 limits assumed)": "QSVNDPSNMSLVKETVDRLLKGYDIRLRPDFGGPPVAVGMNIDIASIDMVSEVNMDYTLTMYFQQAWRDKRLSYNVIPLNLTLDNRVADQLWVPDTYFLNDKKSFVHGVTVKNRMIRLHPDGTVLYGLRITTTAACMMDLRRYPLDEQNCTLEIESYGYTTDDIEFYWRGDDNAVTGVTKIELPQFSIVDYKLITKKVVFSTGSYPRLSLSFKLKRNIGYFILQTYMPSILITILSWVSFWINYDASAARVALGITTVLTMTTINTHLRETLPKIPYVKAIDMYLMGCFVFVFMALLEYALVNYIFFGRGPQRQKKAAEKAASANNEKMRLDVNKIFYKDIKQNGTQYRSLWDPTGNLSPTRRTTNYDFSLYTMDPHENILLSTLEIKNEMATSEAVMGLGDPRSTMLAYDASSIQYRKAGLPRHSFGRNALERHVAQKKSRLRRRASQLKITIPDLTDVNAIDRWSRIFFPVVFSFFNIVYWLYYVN", "sequence (P18507 40-475)": "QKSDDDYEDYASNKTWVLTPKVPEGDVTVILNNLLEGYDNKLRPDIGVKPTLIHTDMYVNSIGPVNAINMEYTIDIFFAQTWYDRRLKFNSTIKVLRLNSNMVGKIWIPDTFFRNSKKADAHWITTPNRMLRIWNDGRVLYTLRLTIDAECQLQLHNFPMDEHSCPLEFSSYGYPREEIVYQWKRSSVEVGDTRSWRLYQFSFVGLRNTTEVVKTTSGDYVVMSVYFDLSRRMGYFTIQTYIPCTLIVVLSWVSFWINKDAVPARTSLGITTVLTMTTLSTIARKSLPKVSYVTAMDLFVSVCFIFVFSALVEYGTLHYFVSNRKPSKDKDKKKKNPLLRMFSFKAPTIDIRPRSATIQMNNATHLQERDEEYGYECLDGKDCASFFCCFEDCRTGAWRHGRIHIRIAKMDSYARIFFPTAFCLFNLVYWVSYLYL", "assay": "Abuse liability binding screen, GABAA1 (h) (α1, β2, γ2) (antagonist radioligand)", "description": "as §2, §1, §3"}, "BZD (central)": {"system": "BZD (central)", "assay": "Abuse liability binding screen, BZD (central) (agonist radioligand)", "description": "as §1"}, "ER (non-selective) (h)": {"system": "ER (non-selective) (h)", "assay": "Abuse liability binding screen, ER (non-selective) (h) (agonist radioligand)", "parameters": "species or system human", "description": "as §1"}, "δ2 (DOP) (h)": {"molecular_target": "δ2 (DOP) (h) (Homo sapiens, UniProt P41143)", "assay": "Binding screen and IC50 determination, δ2 (DOP) (h) (agonist radioligand)", "description": "as §1"}, "Ca^2+ channel (N)": {"molecular_target": "Ca^2+ channel (N) (Rattus norvegicus, UniProt Q02294)", "sequence (Q02294 whole entry)": "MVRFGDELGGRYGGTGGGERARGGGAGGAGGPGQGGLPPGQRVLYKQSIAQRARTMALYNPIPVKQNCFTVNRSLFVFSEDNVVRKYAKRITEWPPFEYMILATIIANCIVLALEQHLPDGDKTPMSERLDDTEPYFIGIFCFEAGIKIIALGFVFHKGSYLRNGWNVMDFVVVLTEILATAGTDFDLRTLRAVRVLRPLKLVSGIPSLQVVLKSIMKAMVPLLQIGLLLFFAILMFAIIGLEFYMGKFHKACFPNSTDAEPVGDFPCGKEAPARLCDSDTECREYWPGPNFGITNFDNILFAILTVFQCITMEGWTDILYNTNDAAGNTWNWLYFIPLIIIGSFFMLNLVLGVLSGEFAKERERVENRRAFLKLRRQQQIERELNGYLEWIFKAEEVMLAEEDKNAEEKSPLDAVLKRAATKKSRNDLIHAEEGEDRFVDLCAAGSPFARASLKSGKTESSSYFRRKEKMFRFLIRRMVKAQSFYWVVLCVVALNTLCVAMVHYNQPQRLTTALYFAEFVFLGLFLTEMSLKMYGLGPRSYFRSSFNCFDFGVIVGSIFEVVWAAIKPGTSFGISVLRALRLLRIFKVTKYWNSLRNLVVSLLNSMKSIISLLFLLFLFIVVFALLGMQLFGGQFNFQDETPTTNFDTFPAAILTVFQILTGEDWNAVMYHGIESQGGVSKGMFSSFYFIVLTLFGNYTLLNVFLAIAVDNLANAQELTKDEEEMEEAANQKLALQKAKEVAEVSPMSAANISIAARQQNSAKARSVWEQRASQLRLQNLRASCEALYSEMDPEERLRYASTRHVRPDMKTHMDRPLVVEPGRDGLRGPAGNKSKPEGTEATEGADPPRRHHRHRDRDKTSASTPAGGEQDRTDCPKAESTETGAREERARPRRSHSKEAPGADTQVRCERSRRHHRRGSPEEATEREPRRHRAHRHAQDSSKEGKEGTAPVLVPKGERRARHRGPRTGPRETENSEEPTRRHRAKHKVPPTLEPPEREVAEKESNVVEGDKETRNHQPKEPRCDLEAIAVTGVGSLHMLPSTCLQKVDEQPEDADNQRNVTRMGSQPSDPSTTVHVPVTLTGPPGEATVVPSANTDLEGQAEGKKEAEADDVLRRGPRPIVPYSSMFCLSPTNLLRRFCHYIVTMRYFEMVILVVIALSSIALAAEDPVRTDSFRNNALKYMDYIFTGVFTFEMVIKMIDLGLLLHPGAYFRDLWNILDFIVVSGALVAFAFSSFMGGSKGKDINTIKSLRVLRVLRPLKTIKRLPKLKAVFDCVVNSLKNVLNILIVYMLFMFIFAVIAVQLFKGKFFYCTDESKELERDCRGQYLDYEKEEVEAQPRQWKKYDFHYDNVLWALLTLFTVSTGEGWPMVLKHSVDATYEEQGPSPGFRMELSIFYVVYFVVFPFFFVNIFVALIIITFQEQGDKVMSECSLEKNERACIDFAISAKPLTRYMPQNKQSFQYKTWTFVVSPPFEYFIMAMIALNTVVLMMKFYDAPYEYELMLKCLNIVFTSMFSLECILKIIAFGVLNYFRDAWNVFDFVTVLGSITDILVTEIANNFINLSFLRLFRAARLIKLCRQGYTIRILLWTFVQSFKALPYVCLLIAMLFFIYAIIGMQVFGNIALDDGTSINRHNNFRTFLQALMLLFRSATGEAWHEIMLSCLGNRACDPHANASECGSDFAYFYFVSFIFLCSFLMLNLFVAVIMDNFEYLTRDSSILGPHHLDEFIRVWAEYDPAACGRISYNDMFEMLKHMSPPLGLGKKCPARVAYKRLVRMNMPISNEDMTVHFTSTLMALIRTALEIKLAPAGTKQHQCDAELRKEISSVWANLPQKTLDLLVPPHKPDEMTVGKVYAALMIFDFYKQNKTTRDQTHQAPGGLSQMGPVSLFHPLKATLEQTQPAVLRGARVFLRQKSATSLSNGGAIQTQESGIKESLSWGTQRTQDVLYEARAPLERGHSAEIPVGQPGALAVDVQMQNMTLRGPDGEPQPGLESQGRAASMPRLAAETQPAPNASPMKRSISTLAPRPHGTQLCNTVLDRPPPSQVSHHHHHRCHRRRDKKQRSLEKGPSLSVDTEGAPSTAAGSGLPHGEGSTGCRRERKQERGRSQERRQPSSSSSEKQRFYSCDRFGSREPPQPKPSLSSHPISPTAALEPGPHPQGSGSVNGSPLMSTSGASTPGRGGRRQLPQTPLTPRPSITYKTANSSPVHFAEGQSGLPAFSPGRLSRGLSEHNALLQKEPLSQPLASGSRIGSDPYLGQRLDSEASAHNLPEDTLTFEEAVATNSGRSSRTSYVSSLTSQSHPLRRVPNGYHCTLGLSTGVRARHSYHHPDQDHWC", "assay": "Abuse liability binding screen, Ca2+ channel (N) (antagonist radioligand)", "description": "as §1"}, "GR (h)": {"molecular_target": "T1, GR (h) (Homo sapiens, UniProt P04150)", "T1 sequence (P04150 1-777)": "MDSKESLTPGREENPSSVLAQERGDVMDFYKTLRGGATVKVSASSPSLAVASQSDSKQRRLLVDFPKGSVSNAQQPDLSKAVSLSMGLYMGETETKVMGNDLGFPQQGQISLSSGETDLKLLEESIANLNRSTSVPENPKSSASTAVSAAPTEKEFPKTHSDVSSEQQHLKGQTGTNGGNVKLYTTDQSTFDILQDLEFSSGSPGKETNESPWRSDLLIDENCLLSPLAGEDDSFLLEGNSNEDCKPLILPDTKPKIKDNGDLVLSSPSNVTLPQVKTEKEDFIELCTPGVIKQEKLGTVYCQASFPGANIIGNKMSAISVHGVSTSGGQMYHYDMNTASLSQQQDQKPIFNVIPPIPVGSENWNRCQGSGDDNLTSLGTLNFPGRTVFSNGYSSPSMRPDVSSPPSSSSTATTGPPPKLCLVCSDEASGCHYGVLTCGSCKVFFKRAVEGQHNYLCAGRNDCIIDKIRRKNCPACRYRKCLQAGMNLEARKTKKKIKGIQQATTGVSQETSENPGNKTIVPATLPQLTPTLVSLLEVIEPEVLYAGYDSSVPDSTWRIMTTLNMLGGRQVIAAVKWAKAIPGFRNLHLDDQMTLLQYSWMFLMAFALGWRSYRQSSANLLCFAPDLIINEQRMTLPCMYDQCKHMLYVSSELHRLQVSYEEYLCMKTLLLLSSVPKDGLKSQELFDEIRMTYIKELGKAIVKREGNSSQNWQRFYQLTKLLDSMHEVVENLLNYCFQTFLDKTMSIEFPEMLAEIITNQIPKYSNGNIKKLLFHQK", "assay": "Abuse liability binding screen, GR (h) (agonist radioligand)", "description": "as §2, §1, §3"}, "α2A (h)": {"molecular_target": "T2, α2A (h) (Homo sapiens, UniProt P08913)", "T2 sequence (P08913 1-465)": "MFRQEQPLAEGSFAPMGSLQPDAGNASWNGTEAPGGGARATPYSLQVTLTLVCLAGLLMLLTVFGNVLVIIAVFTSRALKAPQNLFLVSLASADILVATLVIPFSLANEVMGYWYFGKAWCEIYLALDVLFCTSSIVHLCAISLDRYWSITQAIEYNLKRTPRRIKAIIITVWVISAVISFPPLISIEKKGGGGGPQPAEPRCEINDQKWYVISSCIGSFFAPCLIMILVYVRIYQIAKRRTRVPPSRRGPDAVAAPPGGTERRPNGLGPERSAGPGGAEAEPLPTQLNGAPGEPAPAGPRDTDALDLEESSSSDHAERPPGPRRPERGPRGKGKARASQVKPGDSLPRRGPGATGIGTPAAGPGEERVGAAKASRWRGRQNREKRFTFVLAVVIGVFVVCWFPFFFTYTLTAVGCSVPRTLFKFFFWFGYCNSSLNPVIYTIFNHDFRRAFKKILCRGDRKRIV", "assay": "Abuse liability binding screen, α2A (h) (antagonist radioligand)", "description": "as §2, §1, §3"}, "AMPA": {"system": "AMPA", "assay": "Abuse liability binding screen, AMPA (antagonist radioligand)", "description": "as §1"}, "CB1 (h)": {"molecular_target": "CB1 (h) (Homo sapiens, UniProt P21554)", "sequence (P21554 whole entry)": "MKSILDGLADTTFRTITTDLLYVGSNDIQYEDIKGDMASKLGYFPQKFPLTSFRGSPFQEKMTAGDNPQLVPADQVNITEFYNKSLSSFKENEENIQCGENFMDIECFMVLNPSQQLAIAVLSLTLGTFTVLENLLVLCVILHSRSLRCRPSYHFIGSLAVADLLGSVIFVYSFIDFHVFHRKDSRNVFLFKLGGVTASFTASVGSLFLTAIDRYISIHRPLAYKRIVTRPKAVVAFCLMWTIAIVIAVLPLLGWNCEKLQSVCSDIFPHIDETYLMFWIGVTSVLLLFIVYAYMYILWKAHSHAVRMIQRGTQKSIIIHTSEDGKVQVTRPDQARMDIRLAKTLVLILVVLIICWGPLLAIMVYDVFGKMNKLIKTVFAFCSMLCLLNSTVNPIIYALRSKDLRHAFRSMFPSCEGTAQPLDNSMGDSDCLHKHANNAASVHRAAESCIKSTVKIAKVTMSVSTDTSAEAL", "assay": "Abuse liability binding screen, CB1 (h) (agonist radioligand)", "description": "as §2, §1, §3"}}}
{"smiles": "O=C(O)[C@H]1O[C@@H](Oc2ccc3c4c2O[C@H]2[C@@H](O)CC[C@@]5(O)[C@@H](C3)N(CC3CCC3)CC[C@]425)[C@H](O)[C@@H](O)[C@@H]1O", "note": "[Compound M5, nalbuphine-3-beta-D-glucuronid]", "values": [{"measurement": "% Inhibition of Control Specific Binding 1st", "setting": "D2S (h)", "value": "−1.6", "unit": "%"}, {"measurement": "% Inhibition of Control Specific Binding 2nd", "setting": "D2S (h)", "value": 7.2, "unit": "%"}, {"measurement": "% Inhibition of Control Specific Binding Mean", "setting": "D2S (h)", "value": 2.8, "unit": "%"}, {"measurement": "% Inhibition of Control Specific Binding 1st", "setting": "[1]", "value": "−7.7", "unit": "%"}, {"measurement": "% Inhibition of Control Specific Binding 2nd", "setting": "[1]", "value": "−8.6", "unit": "%"}, {"measurement": "% Inhibition of Control Specific Binding Mean", "setting": "[1]", "value": "−8.1", "unit": "%"}, {"measurement": "% Inhibition of Control Specific Binding 1st", "setting": "β1 (h)", "value": "−5.4", "unit": "%"}, {"measurement": "% Inhibition of Control Specific Binding 2nd", "setting": "β1 (h)", "value": 4.8, "unit": "%"}, {"measurement": "% Inhibition of Control Specific Binding Mean", "setting": "β1 (h)", "value": "−0.3", "unit": "%"}, {"measurement": "% Inhibition of Control Specific Binding 1st", "setting": "GABAA1 (h) (α1, β2, γ2)", "value": "−1.4", "unit": "%"}, {"measurement": "% Inhibition of Control Specific Binding 2nd", "setting": "GABAA1 (h) (α1, β2, γ2)", "value": "−0.8", "unit": "%"}, {"measurement": "% Inhibition of Control Specific Binding Mean", "setting": "GABAA1 (h) (α1, β2, γ2)", "value": "−1.1", "unit": "%"}, {"measurement": "% Inhibition of Control Specific Binding 1st", "setting": "BZD (central)", "value": "−13.2", "unit": "%"}, {"measurement": "% Inhibition of Control Specific Binding Mean", "setting": "BZD (central)", "value": "−5.6", "unit": "%"}, {"measurement": "% Inhibition of Control Specific Binding 1st", "setting": "ER (non-selective) (h)", "value": 9.0, "unit": "%"}, {"measurement": "% Inhibition of Control Specific Binding 2nd", "setting": "ER (non-selective) (h)", "value": 10.6, "unit": "%"}, {"measurement": "% Inhibition of Control Specific Binding Mean", "setting": "ER (non-selective) (h)", "value": 9.8, "unit": "%"}, {"measurement": "% Inhibition of Control Specific Binding 1st", "setting": "δ2 (DOP) (h)", "value": 13.9, "unit": "%"}, {"measurement": "% Inhibition of Control Specific Binding 2nd", "setting": "δ2 (DOP) (h)", "value": 18.2, "unit": "%"}, {"measurement": "% Inhibition of Control Specific Binding 1st", "setting": "Ca^2+ channel (N)", "value": "−10.9", "unit": "%"}, {"measurement": "% Inhibition of Control Specific Binding 2nd", "setting": "Ca^2+ channel (N)", "value": 2.5, "unit": "%"}, {"measurement": "% Inhibition of Control Specific Binding Mean", "setting": "Ca^2+ channel (N)", "value": "−4.2", "unit": "%"}, {"measurement": "% Inhibition of Control Specific Binding 1st", "setting": "GR (h)", "value": 0.8, "unit": "%"}, {"measurement": "% Inhibition of Control Specific Binding 2nd", "setting": "GR (h)", "value": "−5.4", "unit": "%"}, {"measurement": "% Inhibition of Control Specific Binding Mean", "setting": "GR (h)", "value": "−2.3", "unit": "%"}, {"measurement": "% Inhibition of Control Specific Binding 1st", "setting": "α2A (h)", "value": "−0.5", "unit": "%"}, {"measurement": "% Inhibition of Control Specific Binding 2nd", "setting": "α2A (h)", "value": "−5.7", "unit": "%"}, {"measurement": "% Inhibition of Control Specific Binding Mean", "setting": "α2A (h)", "value": "−3.1", "unit": "%"}, {"measurement": "% Inhibition of Control Specific Binding 1st", "setting": "AMPA", "value": "−8.0", "unit": "%"}, {"measurement": "% Inhibition of Control Specific Binding 2nd", "setting": "AMPA", "value": "−11.1", "unit": "%"}, {"measurement": "% Inhibition of Control Specific Binding Mean", "setting": "AMPA", "value": "−9.6", "unit": "%"}, {"measurement": "% Inhibition of Control Specific Binding 1st", "setting": "CB1 (h)", "value": "−2.9", "unit": "%"}, {"measurement": "% Inhibition of Control Specific Binding 2nd", "setting": "CB1 (h)", "value": 12.9, "unit": "%"}, {"measurement": "% Inhibition of Control Specific Binding Mean", "setting": "CB1 (h)", "value": 5.0, "unit": "%"}]}
